Measured values published in ChEMBL document CHEMBL1139636, “QSAR analysis of thiazole benzenesulfonamide substituted 3-pyridylethanolamines as beta3-adrenergic receptor agonist” (Bioorg Med Chem Lett, 2005).
pEC50: −log10 of the molar value.

Target: Beta-3 adrenergic receptor (Homo sapiens, UniProt P13945)
Experiment: Effective concentration to stimulate cAMP production in chinese hamster ovary cells expressing cloned human beta-3-adrenergic receptor
Type: functional, cell-based, Cricetulus griseus

Beta-3 adrenergic receptor, sequence (P13945 whole entry): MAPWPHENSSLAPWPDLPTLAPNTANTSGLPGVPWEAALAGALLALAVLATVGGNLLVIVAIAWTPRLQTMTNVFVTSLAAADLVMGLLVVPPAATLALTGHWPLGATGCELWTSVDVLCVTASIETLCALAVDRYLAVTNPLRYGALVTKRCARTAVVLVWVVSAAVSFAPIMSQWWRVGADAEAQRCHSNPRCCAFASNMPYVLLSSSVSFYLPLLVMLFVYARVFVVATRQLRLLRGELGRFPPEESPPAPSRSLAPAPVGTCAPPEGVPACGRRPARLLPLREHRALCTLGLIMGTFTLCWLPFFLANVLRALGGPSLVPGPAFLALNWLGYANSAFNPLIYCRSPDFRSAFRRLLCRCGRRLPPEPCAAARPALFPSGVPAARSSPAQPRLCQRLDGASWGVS

pEC50 | SMILES
8.57 | O=S(=O)(Nc1ccc(CCNC[C@H](O)c2ccccc2)cc1)c1ccc(Cc2nc(-c3ccc4ncccc4c3)cs2)cc1
8.00 | CCCCCCCCc1csc(Cc2ccc(S(=O)(=O)Nc3ccc(CCNC[C@H](O)c4ccccc4)cc3)cc2)n1
7.48 | O=S(=O)(Nc1ccc(CCNC[C@H](O)c2ccccc2)cc1)c1ccc(Cc2nc(CCc3ccccc3)cs2)cc1
7.59 | O=S(=O)(Nc1ccc(CCNC[C@H](O)c2ccccc2)cc1)c1ccc(Cc2nc(CCC3CCCC3)cs2)cc1
8.02 | O=S(=O)(Nc1ccc(CCNC[C@H](O)c2ccccc2)cc1)c1ccc(Cc2nc(-c3ccc(F)cc3)cs2)cc1
8.30 | O=S(=O)(Nc1ccc(CCNC[C@H](O)c2ccccc2)cc1)c1ccc(Cc2nc(-c3cc4ccccc4o3)cs2)cc1
8.15 | O=S(=O)(Nc1ccc(CCNC[C@H](O)c2ccccc2)cc1)c1ccc(Cc2nc(-c3ccc(F)c(F)c3)cs2)cc1
8.04 | O=S(=O)(Nc1ccc(CCNC[C@H](O)c2ccccc2)cc1)c1ccc(Cc2nc(-c3c[nH]c4ccccc34)cs2)cc1
8.21 | O=S(=O)(Nc1ccc(CCNC[C@H](O)c2ccccc2)cc1)c1ccc(Cc2nc(Cc3ccc(F)cc3)cs2)cc1
7.29 | CC/C=C/CC/C=C/c1csc(Cc2ccc(S(=O)(=O)Nc3ccc(CCNC[C@H](O)c4ccccc4)cc3)cc2)n1
8.24 | O=S(=O)(Nc1ccc(CCNC[C@H](O)c2ccccc2)cc1)c1ccc(Cc2nc(-c3cc4ccccc4s3)cs2)cc1
8.14 | O=S(=O)(Nc1ccc(CCNC[C@H](O)c2ccccc2)cc1)c1ccc(Cc2nc(-c3cnc4ccccc4c3)cs2)cc1
7.92 | O=S(=O)(Nc1ccc(CCNC[C@H](O)c2ccccc2)cc1)c1ccc(CCc2nc(Cc3ccc4ccccc4c3)cs2)cc1
7.40 | O=S(=O)(Nc1ccc(CCNC[C@H](O)c2ccccc2)cc1)c1ccc(Cc2nc(-c3cccnc3)cs2)cc1
8.92 | CCCCCCc1ccc(-c2csc(Cc3ccc(S(=O)(=O)Nc4ccc(CCNC[C@H](O)c5ccccc5)cc4)cc3)n2)cc1
8.62 | CC(C)(C)c1ccc(-c2csc(Cc3ccc(S(=O)(=O)Nc4ccc(CCNC[C@H](O)c5ccccc5)cc4)cc3)n2)cc1
7.35 | O=S(=O)(Nc1ccc(CCNC[C@H](O)c2ccccc2)cc1)c1ccc(Cc2nc(-c3ccc(O)cc3)cs2)cc1
7.30 | CC(=O)NCCCCCc1csc(Cc2ccc(S(=O)(=O)Nc3ccc(CCNC[C@H](O)c4ccccc4)cc3)cc2)n1
7.66 | O=S(=O)(Nc1ccc(CCNC[C@H](O)c2ccccc2)cc1)c1ccc(Cc2nc(-c3ccccn3)cs2)cc1
8.70 | O=S(=O)(Nc1ccc(CCNC[C@H](O)c2ccccc2)cc1)c1ccc(Cc2nc(-c3ccc4ccccc4c3)cs2)cc1
7.35 | CC(=O)Nc1ccc(-c2csc(Cc3ccc(S(=O)(=O)Nc4ccc(CCNC[C@H](O)c5ccccc5)cc4)cc3)n2)cc1
8.01 | CCCCCCCCc1csc(CCc2ccc(S(=O)(=O)Nc3ccc(CCNC[C@H](O)c4ccccc4)cc3)cc2)n1
7.48 | O=S(=O)(Nc1ccc(CCNC[C@H](O)c2ccccc2)cc1)c1ccc(Cc2nc(Cc3ccc4ccccc4c3)cs2)cc1
